T1: ΔN-pvLAAD (Proteus vulgaris, UniProt Q9LCB2)
T1 construct: gene LAD; N-terminal Tat peptide truncated, residues 30-471; recombinant in E. coli M15, Ni-NTA (His tag) and size exclusion
T1 sequence (Q9LCB2 30-471): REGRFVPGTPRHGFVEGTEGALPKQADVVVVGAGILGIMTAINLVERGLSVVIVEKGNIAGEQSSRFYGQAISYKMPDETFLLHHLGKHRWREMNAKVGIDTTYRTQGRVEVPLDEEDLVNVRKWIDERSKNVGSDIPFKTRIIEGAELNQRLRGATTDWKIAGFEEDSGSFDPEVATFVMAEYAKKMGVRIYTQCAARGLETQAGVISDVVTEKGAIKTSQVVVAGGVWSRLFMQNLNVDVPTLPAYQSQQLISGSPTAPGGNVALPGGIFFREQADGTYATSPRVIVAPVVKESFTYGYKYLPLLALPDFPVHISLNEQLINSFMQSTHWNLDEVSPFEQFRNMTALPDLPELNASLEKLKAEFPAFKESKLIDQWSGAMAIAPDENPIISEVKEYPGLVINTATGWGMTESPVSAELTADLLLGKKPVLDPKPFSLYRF

B1: FL-pvLAAD (Proteus vulgaris) (protein)
chain: MAISRRKFIIGGTVVAVAAGAGILTPMLTREGRFVPGTPRHGFVEGTEGALPKQADVVVVGAGILGIMTAINLVERGLSVVIVEKGNIAGEQSSRFYGQAISYKMPDETFLLHHLGKHRWREMNAKVGIDTTYRTQGRVEVPLDEEDLVNVRKWIDERSKNVGSDIPFKTRIIEGAELNQRLRGATTDWKIAGFEEDSGSFDPEVATFVMAEYAKKMGVRIYTQCAARGLETQAGVISDVVTEKGAIKTSQVVVAGGVWSRLFMQNLNVDVPTLPAYQSQQLISGSPTAPGGNVALPGGIFFREQADGTYATSPRVIVAPVVKESFTYGYKYLPLLALPDFPVHISLNEQLINSFMQSTHWNLDEVSPFEQFRNMTALPDLPELNASLEKLKAEFPAFKESKLIDQWSGAMAIAPDENPIISEVKEYPGLVINTATGWGMTESPVSAELTADLLLGKKPVLDPKPFSLYRF
notes: full-length with non-cleaved N-terminal Tat peptide (ends at residue 471); recombinant in E. coli M15, Ni-NTA (His tag) and size exclusion

Key:
ΔN-pvLAAD = target: T1, ΔN-pvLAAD; test: phenylpyruvate formation, absorbance at […] nm; assay type: biochemical; settings: without membrane; 25 mM substrate; 50 mM potassium phosphate pH 7.5; 25 °C; 10 µM enzyme
purified protein = substrate: N[C@@H](Cc1ccccc1)C(=O)O; test: purified protein; assay type: biochemical, Proteus vulgaris; settings: without membrane, 50 mM potassium phosphate pH 7.5, 37 °C, 5 µM enzyme, 5 min

Row | Molecule | phenylpyruvate formation, absorbance at 321 nm (ΔN-pvLAAD) | Km (purified protein)
1 | N[C@@H](Cc1ccccc1)C(=O)O [L-phenylalanine] | does not affect the catalytic activity of pvLAAD in solution | –
2 | B1 | – | 12.56 ± 3.19 mM
